Assay results from US20260374818A1, “CATIONIC PEPTIDES WITH BROAD SPECTRUM ACTIVITY” (priority 2023, published 2026).
Read-outs that look alike come from different tables or passages of the source.

Key:
[1] = test system: P. aeruginosa PAO1 planktonic cells; assay: MIC of antibiotics against planktonic cells, PAO1; format: cell-based, Pseudomonas aeruginosa; details: for MIC against planktonic cells in BM2 medium: PAO1, BM2; for MIC against planktonic cells in MHB medium: PAO1, MHB; for MIC: Pseudomonas aeruginosa
[2] = test system: P. aeruginosa PAO1 biofilms; assay: Checkerboard biofilm synergy of AB103-D with antimicrobials, PAO1; format: cell-based, Pseudomonas aeruginosa; details: for FIC against biofilms: antibiotic used with AB103-D, ≤0.5 synergy; for Fold Decrease in concentration of AB103-D: in combination of antibiotic with AB103-D; for Fold Decrease in concentration of AB103-D / Fold Decrease in concentration of Antibiotic: PAO1; for Fold Decrease in concentration of Antibiotic: in combination with AB103-D
[3] = test system: MRSA USA 300 LAC planktonic cells; assay: MIC of antibiotics against planktonic cells, MRSA; format: cell-based, methicillin resistant Staphylococcus aureus; details: for MIC in 10% TSB, 0.1% glucose / MIC in MHB medium: MRSA planktonic; for MIC: Staphylococcus aureus
[4] = test system: MRSA USA 300 LAC biofilms; assay: Checkerboard biofilm synergy of AB103-D with antimicrobials, MRSA; format: cell-based, methicillin resistant Staphylococcus aureus; details: for Biofilm MBIC in 10% TSB, 0.1% glucose / Fold decrease AB103-D / Fold decrease Antibiotic: MRSA; for FIC: antibiotic used with AB103-D, MRSA USA 300 LAC, ≤0.5 synergy; for Fold decrease AB103-D: in combination of antibiotic with AB103-D; for Fold decrease Antibiotic: in combination with AB103-D
[5] = antibiotic alone, PAO1, BM2, at least 70% reduction
[6] = antibiotic alone, at least 70% reduction
[7] = PAO1, read-out: MIC against planktonic cells in BM2 medium
[8] = PAO1, read-out: MIC against planktonic cells in MHB medium
[9] = read-out: MIC in 10% TSB, 0.1% glucose

Structure (SMILES) | FIC against biofilms ([2]; PAO1, BM2) | Fold Decrease in concentration of AB103-D [2] | Fold Decrease in concentration of Antibiotic [2] | FIC [4] | Fold decrease AB103-D [4] | Fold decrease Antibiotic [4] | MIC [1, 7] [µg/mL] | MIC [1, 8] [µg/mL] | MIC [3, 9] [µg/mL] | MIC ([3]; read-out: MIC in MHB medium) [µg/mL] | also measured
O=[N+]([O-])[O-].[Ag+] [AgNO3] | 1 | 2-fold | 2-fold | 1.13 | No | 8-fold |  |  |  |  | MIC against planktonic cells in BM2 medium [1]: 0.03 µg/mL; MIC against planktonic cells in MHB medium [1]: 0.125 µg/mL; Antibiotic MBIC against biofilms [2, 5]: 0.03 µg/mL; MIC in 10% TSB, 0.1% glucose ([3]; 10% TSB, 0.1% glucose): 0.25; MIC in MHB medium [3]: 0.25 µg/mL; Biofilm MBIC in 10% TSB, 0.1% glucose [4, 6]: 0.25
NCC[C@H](O)C(=O)N[C@@H]1C[C@H](N)[C@@H](O[C@H]2O[C@H](CN)[C@@H](O)[C@H](O)[C@H]2O)[C@H](O)[C@H]1O[C@H]1O[C@H](CO)[C@@H](O)[C@H](N)[C@H]1O [Amikacin] | 1.06 | No | 16-fold | 1 | 2-fold | 2-fold | 4 | 0.5 | 0.5 | 0.5 | 
CC[C@H]1OC(=O)[C@H](C)[C@@H](O[C@H]2C[C@@](C)(OC)[C@@H](O)[C@H](C)O2)[C@H](C)[C@@H](O[C@@H]2O[C@H](C)C[C@H](N(C)C)[C@H]2O)[C@](C)(O)C[C@@H](C)CN(C)[C@H](C)[C@@H](O)[C@]1(C)O [Azithromycin] | 0.75 | 2-fold | 4-fold | 0.38 | 8-fold | 4-fold | 128 | 128 | 4 | 1 | 
C[C@H]1[C@H](NC(=O)/C(=N\OC(C)(C)C(=O)O)c2csc(N)n2)C(=O)N1S(=O)(=O)O [Aztreonam] | 0.56 | 2-fold | 16-fold | 0.75 | 4-fold | 2-fold | 8 | 4 | > 128 | > 128 | 
CO/N=C(\C(=O)N[C@@H]1C(=O)N2C(C(=O)[O-])=C(C[N+]3(C)CCCC3)CS[C@H]12)c1csc(N)n1 [Cefepime] | 0.56 | 2-fold | 16-fold | 0.38 | 8-fold | 4-fold | 0.5 | 1 | 8 | 8 | 
CC(C)(O/N=C(\C(=O)N[C@@H]1C(=O)N2C(C(=O)[O-])=C(C[n+]3ccccc3)CS[C@H]12)c1csc(N)n1)C(=O)O [Ceftazidime] | 0.5 | 4-fold | 4-fold | 0.5 | 4-fold | 4-fold | 2 | 1 | 64 | 32 | 
[H]/N=C(\N/C(=N/[H])NCCCCCCNC(=N)NC(=N)Nc1ccc(Cl)cc1)Nc1ccc(Cl)cc1 [Chlorhexidine] | 0.63 | 8-fold | 2-fold | 0.56 | 2-fold | 16-fold | 4 | 3.12 | 1 | 0.4 | 
O=C(O)c1cn(C2CC2)c2cc(N3CCNCC3)c(F)cc2c1=O [Ciprofloxacin] | 0.53 |  |  | 0.5 |  |  |  |  |  |  | 
CCC[C@@H]1C[C@@H](C(=O)N[C@@H]([C@H]2O[C@H](SC)[C@H](O)[C@@H](O)[C@H]2O)[C@H](C)Cl)N(C)C1 [Clindamycin] | 1 | 2-fold | 2-fold | 0.635 | 2-fold | 8-fold | > 256 | > 256 | 0.5 | 0.125 | 
O=C(O)CN(CCN(CC(=O)O)CC(=O)O)CC(=O)O [EDTA] | 1.02 | No | 64-fold | 0.38 | 4-fold | 8-fold |  |  |  |  | MIC against planktonic cells in BM2 medium [1]: >256 µg/mL; MIC against planktonic cells in MHB medium [1]: >256 µg/mL; Antibiotic MBIC against biofilms [2, 5]: 128 µg/mL; MIC in 10% TSB, 0.1% glucose ([3]; 10% TSB, 0.1% glucose): 128; MIC in MHB medium [3]: 64 µg/mL; Biofilm MBIC in 10% TSB, 0.1% glucose [4, 6]: 128
OO [H2O2] | 0.5 | 4-fold | 4-fold | 0.63 | 8-fold | 2-fold |  |  |  |  | MIC against planktonic cells in BM2 medium ([1]; in %): 0.08%; MIC against planktonic cells in MHB medium ([1]; in %): 0.01%; Antibiotic MBIC against biofilms ([2]; PAO1, BM2, in %): 0.08%; MIC in MHB medium ([3]; in %): 0.0018%; MIC in 10% TSB, 0.1% glucose ([3]; in %): 0.0025%; Biofilm MBIC in 10% TSB, 0.1% glucose ([4]; in %): 0.0025%
C[C@H]1COc2c(N3CCN(C)CC3)c(F)cc3c(=O)c(C(=O)O)cn1c23 [Levofloxacin] | 0.63 | 2-fold | 8-fold | 0.75 | 4-fold | 2-fold |  | 0.25 | 8 | 4 | MIC against planktonic cells in BM2 medium [1]: 0.125 µg/mL; Antibiotic MBIC against biofilms [2, 5]: 0.125 µg/mL
C[C@@H](O)[C@H]1C(=O)N2C(C(=O)O)=C(S[C@@H]3CN[C@H](C(=O)N(C)C)C3)[C@H](C)[C@H]12 [Meropenem] | 1.06 | 16-fold | No | 0.31 | 16-fold | 4-fold | 0.06 | 0.25 | 0.25 | 0.125 | 
C/C(=C\C(=O)OCCCCCCCCC(=O)O)C[C@@H]1OC[C@H](C[C@@H]2O[C@H]2[C@@H](C)[C@H](C)O)[C@@H](O)[C@H]1O [Mupirocin] |  | No | No | 0.75 | 2-fold | 4-fold | > 128 | > 256 | 0.25 | 0.125 | 
CCn1cc(C(=O)O)c(=O)c2cc(F)c(N3CCNCC3)cc21 [Norfloxacin] | 1.13 | No | 8-fold | 0.5 | 4-fold | 4-fold | 0.25 | 0.5 | 32 | 32 | 
CCN1CCN(C(=O)N[C@@H](C(=O)N[C@@H]2C(=O)N3[C@@H]2SC(C)(C)[C@@H]3C(=O)O)c2ccccc2)C(=O)C1=O [Piperacillin] | 1 | 2-fold | 2-fold | 0.63 | 2-fold | 8-fold | 4 | 8 | 4 | 4 | 
NC[C@H]1O[C@H](O[C@H]2[C@H](O)[C@@H](O[C@H]3O[C@H](CO)[C@@H](O)[C@H](N)[C@H]3O)[C@H](N)C[C@@H]2N)[C@H](N)C[C@@H]1O [Tobramycin] | 1 | 2-fold | 2-fold | 0.38 | 8-fold | 4-fold | 2 | 0.5 | 0.125 | 0.125 | 
COc1cc(Cc2cnc(N)nc2N)cc(OC)c1OC [Trimethoprim] | 1 | 2-fold | 2-fold | 0.56 | 2-fold | 16-fold | 128 | 256 | 8 | 2 | 
CN[C@H](CC(C)C)C(=O)N[C@H]1C(=O)N[C@@H](CC(N)=O)C(=O)N[C@H]2C(=O)N[C@H]3C(=O)N[C@H](C(=O)N[C@H](C(=O)O)c4cc(O)cc(O)c4-c4cc3ccc4O)[C@H](O)c3ccc(c(Cl)c3)Oc3cc2cc(c3O[C@@H]2O[C@H](CO)[C@@H](O)[C@H](O)[C@H]2O[C@H]2C[C@](C)(N)[C@H](O)[C@H](C)O2)Oc2ccc(cc2Cl)[C@H]1O [Vancomycin] | 0.56 | 2-fold | 16-fold | 0.38 | 8-fold | 4-fold | 256 | > 256 | 0.25 | 0.25 | 
